Assay results published in patent US6573060B1, “Methods and compositions for targeting DNA metabolic processes using aminoglycoside derivatives” (University of Virginia Patent Foundation, priority 1997, dated 2003).
“Also recorded” adds a separate entry of the source.

Legend:
[1] = test system: Human PC3 (prostate cancer) cells; test: Human PC3 subcutaneous tumors in nude, athymic mice, intratumoral injection; type: in vivo
Description: Human PC3 (prostate cancer) cells were implanted subcutaneously in nude, athymic mice. Following tumor development to a size of approximately 200 cubic millimeters, tumors were injected directly with 50 μl of 1.3 mM phosphokanamycin every Monday, Wednesday, and Friday for two weeks.
CRL: CD-lnu/nu Br mice (nude, athymic) were obtained from Charles River Animal Resources Facility. Human PC3 cells were grown in RPMI 1640 media containing 10% serum, 200 μl of this cell culture was diluted 1:1 with Matrigel (Collaborative Biomedical Products) such that the total number of cells after dilution were 2×10^6. The cells were then injected on the underside of the flank and the development of subcutaneous tumor size was monitored by measurement with Vernier calipers.
Therapy with the drugs was started when the tumor size reached 200 mm^3. The drugs were solubilized in PBS (0.35 g NaH2PO4, 1.06 g Na2HPO and 8.5 g in a total volume of 1 L, pH 7.2), pH was adjusted to 7.2 using phosphoric acid and filter sterilized before injection. 50 μl of the drug (1.3 mM phosphokanamycin) was administered by direct injection into the tumor every Monday, Wednesday, and Friday for two weeks. The tumor size was monitored by measurement with Vernier calipers. The mice were euthanized when the tumor size exceeded 1000 mm^3 or when the weight of the mice decreased by more than 15% of their starting weight. The tumor size was calculated using the following formula:
volume=[length×(width)^2]/2

PC3 cell line = test: MTS cell survival assay, PC3 prostate cancer cells; type: cell-based, human; settings: FIG. 8, day five
Description: (§1) The effect of phosphoaminoglycosides on tumor cell growth was tested in cell culture inhibition studies. 5000 cells were plated in a total volume of 50 μl in a 96 well titer plate. After 24 hours, 50 μl of media and drugs, to the required final concentration, were added. The plates were incubated at 37° C. for 5 days. On the 5th day, the fraction of surviving cells was estimated using a non-radioactive cell proliferation assay (CellTiter 96 AQueous Cell Proliferation Assay from Promega).
(§2) This is a colorimetric assay that determines the number of viable cells. The assay measures the bioreduction of a tetrazolium compound (3-(4,5-dimethylthiazol-2-yl)-5-(3-carboxymethoxyphenyl)-2-(4-sulfophenyl)-2H-tetrazolium, inner salt; MTS), via an electron coupling reagent (phenazine methosulfate; PMS), to formazan, which is soluble in the tissue culture medium. The absorbance of formazan at 490 nm can be measured from the 96 well assay plate without additional processing. The conversion of MTS into the aqueous soluble formazan is accomplished by dehydrogenase enzymes found in metabolically active cells. The quantity of formazan product as measured by the amount of 490 nm absorbance is directly proportional to the number of living cells in culture. 100 μl of the PMS reagent (Promega) was mixed with 2.0 ml of MTS solution (Promega). 20 μl of PMS/MTS solution was added to the cells and the plates were incubated at 37° C. for 2 hours before measuring the absorbance at 490 nm.
In an initial experiment, four drugs (A-kanamycin, B-phosphokanamycin, C-neomycin, and D-phosphoneomycin) were added to prostate cancer cell cultures in a blind fashion. Two prostate cancer cell lines were incubated with each of the drugs and assayed for cell survivability using the MTS assay (Promega).
5000 cells were grown overnight in media and each respective drug (A-kanamycin, B-phosphokanamycin, C-neomycin, and D-phosphoneomycin) was added on the second day. […] Each point is the average of readings from three wells.

LNCaP cell line = test: MTS cell survival assay, LNCaP prostate cancer cells; type: cell-based; settings: Homo sapiens, 120 h, 8 wells, 5 days
Description: as §1
as §2, with “100 μl of the PMS reagent (Promega) was mixed with 2.0 ml of MTS solution (Promega).” left out, “nm. […]” for “nm.”

Leishmania chagasi = Leishmania chagasi culture growth; type: cell-based; settings: FIGS. 12A-B
Description: Leishmania chagasi cells were grown in HO-MEM medium to a cell density of 1×10^6 cells/ml. 50 μl of drug were mixed with 50 μl of media in the first well of a 96 well micro titer plate. Serial, two-fold dilutions were then made by taking 50 μl of the solution in the first well and diluting it into the second well and this process was repeated through the 12 wells of an entire row of the 96 well plate. This gives a 2-fold difference in the concentration of the drug between the wells in that row. This procedure was repeated for all the inhibitors. 50 μl of Leishmania chagasi, at a cell density of 1×10^6 cells/ml, was then added to the wells. The micro titer plate was incubated at 30° C. under anaerobic conditions. Cells were counted under light microscope every 24 hours after addition of drugs.

With `NC[C@H]1O[C@H](O[C@H]2[C@H](O)[C@@H](O[C@H]3O[C@H](CO)[C@@H](O)[C@H](N)[C@H]3O)[C@H](N)C[C@@H]2N)[C@H](O)[C@@H](OP(=O)(O)O)[C@@H]1O` [phosphokanamycin, 3′-phosphokanamycin] the “effect on tumors (in words)” value ([1]; 50 μl of 1.3 mM into the tumor Mon/Wed/Fri for two weeks) was “tumor cells were killed; also recorded: Tumors regress in size and ultimately disappear”, the “remote lesions (metastasis) after treatment” value ([1]; metastasis had occurred before treatment) was “no remote lesions are detected” and the “longevity of treated mice” value ([1]; relative to untreated controls) was “significant longevity relative to the untreated controls”. For the same compound, the toxicity ([1]; treatments lasting as long as 8 weeks) was “no detectable toxicity”, the “effect on PC3 cells (in words)” value (PC3 cell line) was “effective in killing the PC3 cells” and the viability at 100 µM (LNCaP cell line) was 109 ± 9%. The “killing of Leishmania cells (in words)” value (Leishmania chagasi) was “clearly effective in killing the cells”.
